According to patent publication US20230373929A1, “FUSED RING DIIMIDE DERIVATIVE, PREPARATION METHOD AND USE THEREOF” (XIANGBEI WELMAN PHARMACEUTICAL CO., LTD., priority 2020, published 2023):
Read-outs that look alike come from different tables or passages of the source.

Columns and labels:
[1] = test system: human lung cancer cells NCI-H460; test: anti-proliferative activity against tumor cells, resazurin assay, NCI-H460; type: cell-based; settings: read-out: IC50 Grades of Inhibitory Effects of Compounds on Tumor Cells, NCI-H460
Procedure: (§1) Objective: To test the anti-proliferative activity of the compound of the present disclosure against various tumor cells.
(§2) Test cells: human colon cancer cells (HT-29, COLO 205), human lung cancer cells (NCI-H460, A549) and human leukemia cells (HL-60, U-937).
(§3) Test method: each tumor cell was tested separately. Cells were incubated in medium at […] for 24 hours before use. The cells growing in an exponential growth phase were harvested and treated with trypsin to prepare a cell suspension, the cell suspension was centrifuged, then the cell pellet was resuspended in a small amount of fresh medium as a cell stock. The cell stock was diluted to required cell concentrations.
(§4) The test was carried out on 96-well plates; blank control groups, cell control groups and compound treatment groups were set up. In the blank control groups, only 10% PBS was added to each well, while in the cell control groups and the compound treatment groups, 100 μL of cells at the above concentration were added to each well, and then each well was filled with 200 μL of 10% PBS. The plates were placed in an incubator overnight. In the compound treatment groups, 100 μL of each test compound at different dilution concentrations was added to each well, the dilution concentrations of the compounds are as shown in Table 2.
(§5) After the addition of the drug to each well was completed, the plates were cultured in an incubator for 96 hours, 22 μL of resazurin sodium solution (Alarm blue, SIGMA R7017) was added to each well. The plates were returned to the incubator for another 4 hours of incubation and then shaken for 10 seconds after being taken out. The fluorescence value of each well were recorded at 530/590 nm.
(§6) The above operations were repeated three times.
(§7) The IC50 value of each test compound was calculated by Prism7 software. IC50 was divided into different grades according to values, that is, SS: <1 μM; S: 1-5 μM; A: 5-10 μM; B: 11-20 μM; C: 21-50 μM; D: 51-100 μM; E: >100 μM.

[2] = test system: human colon cancer cells COLO 205; test: anti-proliferative activity against tumor cells, resazurin assay, COLO 205; type: cell-based; settings: read-out: IC50 Grades of Inhibitory Effects of Compounds on Tumor Cells, COLO205
Procedure: as §1, §2, §3, §4, §5, §6, §7

[3] = test system: human lung cancer cells A549; test: anti-proliferative activity against tumor cells, resazurin assay, A549; type: cell-based; settings: read-out: IC50 Grades of Inhibitory Effects of Compounds on Tumor Cells, A549
Procedure: as §1, §2, §3, §4, §5, §6, §7

[4] = test system: human leukemia cells U-937; test: anti-proliferative activity against tumor cells, resazurin assay, U-937; type: cell-based; settings: read-out: IC50 Grades of Inhibitory Effects of Compounds on Tumor Cells, U-937
Procedure: as §1, §2, §3, §4, §5, §6, §7

[5] = test system: human colon cancer cells HT-29; test: anti-proliferative activity against tumor cells, resazurin (Alamar blue) assay, HT-29; type: cell-based; settings: read-out: IC50 Grades of Inhibitory Effects of Compounds on Tumor Cells, HT-29
Procedure: as §1, §2, §3, §4, §5, §6, §7

[6] = test system: human leukemia cells HL-60; test: anti-proliferative activity against tumor cells, resazurin assay, HL-60; type: cell-based; settings: read-out: IC50 Grades of Inhibitory Effects of Compounds on Tumor Cells, HL-60
Procedure: as §1, §2, §3, §4, §5, §6, §7

tumor cells = test: anti-proliferative activity, overall comparison over all tumor cells; type: cell-based, human; settings: all tested tumor cells, under the test condition of the present disclosure
Procedure: as §1, §2, §3
(§8) The test was carried out on 96-well plates; blank control groups, cell control groups and compound treatment groups were set up. In the blank control groups, only 10% PBS was added to each well, while in the cell control groups and the compound treatment groups, 100 μL of cells at the above concentration were added to each well, and then each well was filled with 200 μL of 10% PBS. […]
(§9) After the addition of the drug to each well was completed, the plates were cultured in an incubator for 96 hours, 22 μL of resazurin sodium solution (Alarm blue, SIGMA R7017) was added to each well. […] The fluorescence value of each well were recorded at 530/590 nm.
(§10) The IC50 value of each test compound was calculated by Prism7 software. […]

colon cancer cells = test: anti-proliferative activity, colon cancer cells; type: cell-based, human; settings: versus similar compounds (Compound 1d, Compound 1)
Procedure: as §1, §2, §3, §8, §9, §10

[7] = Homo sapiens, NCI-H460, 96 hours culture, resazurin fluorescence 530/590 nm
[8] = Homo sapiens, COLO 205, COLO205, 96 hours culture, resazurin fluorescence 530/590 nm
[9] = Homo sapiens, A549, 96 hours culture, resazurin fluorescence 530/590 nm
[10] = Homo sapiens, U-937, 96 hours culture, resazurin fluorescence 530/590 nm
[11] = Homo sapiens, HT-29, 96 hours culture, resazurin fluorescence 530/590 nm
[12] = Homo sapiens, HL-60, 96 hours culture, resazurin fluorescence 530/590 nm

| SMILES | IC50 [1, 7] [µM] | IC50 [2, 8] [µM] | IC50 [3, 9] [µM] | IC50 [4, 10] [µM] | IC50 [5, 11] [µM] | IC50 [6, 12] [µM] | IC50 ([1]; Homo sapiens, NCI-H460, 96 h) [µM] | IC50 ([2]; Homo sapiens, COLO 205, 96 h) [µM] | IC50 ([3]; Homo sapiens, A549, 96 h) [µM] | IC50 ([4]; Homo sapiens, U-937, 96 h) [µM] | IC50 ([5]; Homo sapiens, HT-29, 96 h) [µM] | IC50 ([6]; Homo sapiens, HL-60, 96 h) [µM] | other results |
| --- | --- | --- | --- | --- | --- | --- | --- | --- | --- | --- | --- | --- | --- |
| CN(C)CCN1C(=O)c2cccc3cc(N)cc(c23)C1=O [Amonafide, reference compound] | 11 to 20 | 5 to 10 | 1 to 5 | 11 to 20 | 11 to 20 | 5 to 10 | – | – | – | – | – | – | – |
| O=NN(CCCl)C(=O)NCCN1C(=O)c2cccc3cc([N+](=O)[O-])cc(c23)C1=O [Compound 1, reference compound] | – | – | – | – | – | – | 11 to 20 | 21 to 50 | 5 to 10 | 21 to 50 | 21 to 50 | 11 to 20 | overall anti-tumor activity, comparison in words (tumor cells): inferior to that of Amonafide |
| O=NN(CCCl)C(=O)NCCCCN1C(=O)c2cccc3cccc(c23)C1=O [Compound 1d, reference compound] | – | – | – | – | – | – | 51 to 100 | 21 to 50 | 21 to 50 | 11 to 20 | 21 to 50 | 21 to 50 | overall anti-tumor activity, comparison in words (tumor cells): inferior to that of Amonafide |
| O=C(NCCNCCCCN1C(=O)c2cccc3cccc(c23)C1=O)N(CCl)CCl [Compound I-01] | – | – | – | – | – | – | 5 to 10 | 1 to 5 | 1 to 5 | 1 to 5 | 1 to 5 | 5 to 10 | – |
| O=C(OCCOCCCCN1C(=O)c2cccc3cccc(c23)C1=O)N(CCl)CCl [Compound I-02] | – | – | – | – | – | – | – | – | – | – | – | – | IC50 ([1]; NCI-H460, 96 hours culture, resazurin fluorescence 530/590 nm): 5 to 10 µM; IC50 ([2]; COLO205, 96 hours culture, resazurin fluorescence 530/590 nm): 5 to 10 µM; IC50 ([3]; A549, 96 hours culture, resazurin fluorescence 530/590 nm): 5 to 10 µM; IC50 ([4]; U-937, 96 hours culture, resazurin fluorescence 530/590 nm): 5 to 10 µM; IC50 ([5]; HT-29, 96 hours culture, resazurin fluorescence 530/590 nm): 5 to 10 µM; IC50 ([6]; HL-60, 96 hours culture, resazurin fluorescence 530/590 nm): 5 to 10 µM |
| O=NN(CCCl)C(=O)NCNCCN1C(=O)c2cccc3cc([N+](=O)[O-])cc(c23)C1=O [Compound I-03] | – | – | – | – | – | – | 5 to 10 | < 1 | 1 to 5 | 5 to 10 | 1 to 5 | 1 to 5 | activity relative to that of similar compounds (colon cancer cells): 50 times |
| O=NN(CCCl)C(=O)NCCNCCCCN1C(=O)c2cccc3cccc(c23)C1=O [Compound I-04] | – | – | – | – | – | – | 5 to 10 | 1 to 5 | 5 to 10 | 1 to 5 | < 1 | 1 to 5 | activity relative to that of similar compounds (colon cancer cells): 50 times |
| CON(C)C(=O)N(C)CCCCNCCN1C(=O)c2cccc3c(N(C)C)ccc(c23)C1=O [Compound I-05] | 5 to 10 | 1 to 5 | 5 to 10 | 5 to 10 | 1 to 5 | 5 to 10 | – | – | – | – | – | – | – |
| COc1ccc2cc3c(cc2c1)C(=O)N(COCCN(OC)C(=O)N(C)C)C3=O [Compound I-08] | 5 to 10 | 5 to 10 | 5 to 10 | 5 to 10 | 11 to 20 | 5 to 10 | – | – | – | – | – | – | – |
| CN(C)C(=O)NCCN(CCCN1C(=O)c2cccc3cc4ccccc4c(c23)C1=O)[N+](=O)[O-] [Compound I-10] | 1 to 5 | 1 to 5 | 5 to 10 | 5 to 10 | 5 to 10 | 1 to 5 | – | – | – | – | – | – | – |
| CCSC(=O)OCCCCOCN1C(=O)c2cccc3c(C)c4ccccc4c(c23)C1=O [Compound I-12] | 5 to 10 | 5 to 10 | 5 to 10 | 11 to 20 | 5 to 10 | 11 to 20 | – | – | – | – | – | – | – |
| CCN(C)C(=O)NCCN(CCN1C(=O)c2cccc3c2c(cc2ccccc23)C1=O)OC [Compound I-15] | 1 to 5 | 5 to 10 | 5 to 10 | 1 to 5 | 1 to 5 | 5 to 10 | – | – | – | – | – | – | – |
| CN(N=O)C(=O)NCCCCCCNCN1C(=O)c2cccc3c2c(cc2ccc(C#N)cc23)C1=O [Compound I-17] | 1 to 5 | 5 to 10 | 1 to 5 | 1 to 5 | 1 to 5 | 5 to 10 | – | – | – | – | – | – | – |
| CC(C)(C)OC(=O)N1CCN(CCCN2C(=O)c3ccc4c5cccc6c(Br)ccc(c7ccc(c3c47)C2=O)c65)CC1 [Compound I-18] | 5 to 10 | 11 to 20 | 5 to 10 | 11 to 20 | 5 to 10 | 5 to 10 | – | – | – | – | – | – | – |
| CONC(=O)NCCN(CCCCN1C(=O)c2cccc3c2c(cc2ccoc23)C1=O)OC [Compound I-20] | 5 to 10 | 5 to 10 | 1 to 5 | 5 to 10 | 5 to 10 | 5 to 10 | – | – | – | – | – | – | – |
